Measured values: patent US20140018350A1, “COMBINATION OF SULFONAMIDE COMPOUND AND TAFLUPROST” (priority 2012, published 2014)

Test: Intraocular pressure lowering effect in monkeys with normal intraocular pressure after instillation
Format: in vivo, Cynomolgus monkey
Settings: male cynomolgus monkeys with normal intraocular pressure, six per group, 20 μL instillation into one eye, 0.0006 w/v % present compound solution and/or Taflotan 0.0015%
Description: In order to study the usefulness of a combination of the present compound with tafluprost, an intraocular pressure lowering effect when the present compound and tafluprost were concomitantly administered to experimental animals (monkeys with normal intraocular pressure) was examined.
An intraocular pressure lowering effect when the present compound and tafluprost were concomitantly administered was examined. As comparison subjects, intraocular pressure lowering effects when the present compound or tafluprost was administered singly were also examined. As a control, the base and physiological saline were administered.
Present compound solution: a 0.0006 w/v % present compound solution (instillation amount: 20 μL) […]
(2) Intraocular pressure was measured immediately before administering the test compound solution, and the measured intraocular pressure was defined as initial intraocular pressure. […]
(4) At 2, 4, 6 and 8 hours after instilling the present compound solution, one drop of the 0.4% oxybuprocaine hydrochloride eye drop was instilled into the eyes for which intraocular pressure was to be measured to effect local anesthesia, and then, intraocular pressure was measured. The intraocular pressure was measured in triplicate for each eye to obtain an average of three measurements, which is shown as the result. […]

## CC(C)OC(=O)CCC/C=C\C[C@@H]1[C@@H](/C=C/C(F)(F)COc2ccccc2)[C@H](O)C[C@@H]1O [tafluprost, 1-methylethyl (5Z)-7-{(1R,2R,3R,5S)-2-[(1E)-3,3-difluoro-4-phenoxy-1-butenyl]-3,5-dihydroxycyclopentyl}-5-heptenoate]
  Intraocular pressure lowering degree (change relative to average of control group) at 6 hours after instillation: 1.9 mmHg

## CC(C)OC(=O)CNc1cccc(CN(Cc2ccc(-n3cccn3)cc2)S(=O)(=O)c2cccnc2)n1 [Present compound, isopropyl(6-{[4-(pyrazol-1-yl)benzyl](pyridin-3-ylsulfonyl)aminomethyl}pyridin-2-ylamino)acetate]
  Intraocular pressure lowering degree (change relative to average of control group) at 6 hours after instillation: 2.6 mmHg
